Measured values as given in patent US5500807A, “Selection method for pharmacologically active compounds” (The Regents of the University of California, priority 1992, dated 1996).

Key:
[1] = tested on: thyroid hormone receptor in nuclei of intact GC cells; assay type: cell-based, rat; settings: for competition with labeled T3, in words: intact cells
Method: Cell Culture utilized GC cells obtained from the cellular culture facility at UCSF. GC cells were plated at 2-4×10^6 cells/100 mm tissue culture disk obtained from Falcone, and were maintained at 37° C., in the mixture of O2 /CO2 95/5%, in DMEM 21 medium containing 10% of fetal calf serum, obtained from J. R. Scientific, Woodland, Calif., to which 100/ml of penicillin and streptomycin, and 2 mM of glutamine were added.
After 18 hours, cells were rinsed with 1 ml of PBS for 10 minutes at 37° C. and incubated for four hours in DMEM containing 10% serum substitute solution and 2% stripped calf serum. […] Incubations were carried out at 37° C. on a Tilt table.

rGH mRNA in GC cells = settings: 300 pM T3; Northern analysis; FIG. 7a
Method: GC cells were plated at 2-4×10^6 cells/100 mm tissue culture disk obtained from Falcone, and were maintained at 37° C., in the mixture of O2 /CO2 95/5%, in DMEM 21 medium containing 10% of fetal calf serum, obtained from J. R. Scientific, Woodland, Calif., to which 100/ml of penicillin and streptomycin, and 2 mM of glutamine were added.
Preparation and Quantitation of Cytoplasmic RNA was done by plating and attachment for 12-18 hours of GC cells, followed by deinducing 4 days in 20 ml of DMEM containing 10% serum substitute solution obtained from Cell Culture Facility, UCSF, and 2% of stripped serum, prepared above. Media were replaced after the second day of deinduction.
The amount of rGH message present in aliquots of GC cell cytoplasm was determined by Northern hybridization using glyoxylated RNA (Ibid., p. 380). Equal amounts of cytoplasmic RNA were examined per lane (15 or 20 ug). HeLa cell RNA was also tested as a control for specificity and background binding. […] Some blots were also probed with a 1.6 kb Kho I fragment of the pHF1 human gamma-actin gene according to Mol. Cel. […] Hybridizations were carried out for 18-48 hours at 42° C. Blots were autoradiographed with Kodak XAR-2 film using Cronex Lightning plus intensifying screens.
After hybridization, blots were autoradiographed and analyzed using Zenith scanning densitometer.

[2] = cited from earlier work
thyroid hormone receptor = settings: J. Clin. Invest., 83 (1989); cited from earlier work
[3] = molecular target: T1, human thyroid hormone receptor (Homo sapiens, UniProt P10828); assay: Receptor binding to in-vitro translated human thyroid hormone receptor (FIGS. 8-13)
T1 sequence (P10828 1-461): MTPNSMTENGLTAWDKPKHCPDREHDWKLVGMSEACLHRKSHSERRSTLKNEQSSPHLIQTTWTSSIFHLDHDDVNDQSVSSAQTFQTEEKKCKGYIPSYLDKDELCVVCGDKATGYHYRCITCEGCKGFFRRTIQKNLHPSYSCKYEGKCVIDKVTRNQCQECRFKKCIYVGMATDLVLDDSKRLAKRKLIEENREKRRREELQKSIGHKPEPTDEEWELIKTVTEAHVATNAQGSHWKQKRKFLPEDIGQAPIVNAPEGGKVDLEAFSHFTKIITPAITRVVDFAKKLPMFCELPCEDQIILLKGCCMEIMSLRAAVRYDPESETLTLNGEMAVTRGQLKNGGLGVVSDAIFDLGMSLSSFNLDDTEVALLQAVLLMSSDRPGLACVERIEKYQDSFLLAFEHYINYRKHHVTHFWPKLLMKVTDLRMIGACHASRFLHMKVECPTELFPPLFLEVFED
Source text: In FIGS. 8-13, human thyroid hormone receptor was produced by in-vitro translation of RNA coding for the receptor protein. The RNA was synthesized enzymatically using a human thyroid receptor DNA clone as a template.

[4] = nuclear but not mitochondrial or cytosol fractions; cited from earlier work
[5] = cases of clinical hypothyroidism

CCCCc1oc2ccccc2c1C(=O)c1cc(I)c(OCCN(CC)CC)c(I)c1 [amiodarone, 2-butyl-3-[3,5-diiodo-4-(β-diethylaminoethoxy)-benzoyl]benzofuran]
competition with labeled T3, in words [1]: competed with labeled T3 for binding to the thyroid hormone receptors
effect on induction of rGH mRNA (rGH mRNA in GC cells): blocked the induction of rGH mRNA
T4 and T3 serum levels in clinical hypothyroidism [2, 5]: normal or slightly decreased
pituitary thyroid receptor hormone binding [2, 5]: decreased pituitary thyroid receptor hormone binding
thyroid-stimulating hormone (TSH) levels [2, 5]: mildly elevated
thyroid side effects ([2]; chronic administration): both hyper- and hypothyroid-like side effects
effect on peripheral T4 monodeiodination ([2]; in vivo): inhibition of peripheral T4 monodeiodination
serum T4 and T3 levels ([2]; in vivo): changes in the concentrations of serum thyroxine (T4) and triiodothyronine (T3) levels
thyroid hormone antagonism, in words (thyroid hormone receptor): behaves as a competitive inhibitor of triiodothyronine (T3)

COc1ccc(C(=O)n2cc(CNC(Cc3cc(I)c(Oc4ccc(O)c(I)c4)c(I)c3)C(=O)O)c3cc(OC)ccc32)cc1 (stereo not drawn)
binding to T3 (thyroid hormone) receptor, in words [3]: binds to the T3 receptors

N[C@@H](Cc1cc(I)c(Oc2cc(I)c(O)c(I)c2)c(I)c1)C(=O)O [T4, thyroxine]
binding to cellular fractions, in words [4]: high-affinity, low capacity binding sites

CCN(CC)CCOc1c(I)cc(C(=O)c2c(C)oc3ccccc23)cc1I
binding to T3 (thyroid hormone) receptor, in words [3]: good binding to T3 receptor

CCCCNC(Cc1cc(I)c(Oc2ccc(O)c(I)c2)c(I)c1)C(=O)O (stereo not drawn)
binding to T3 (thyroid hormone) receptor, in words [3]: binds to the T3 receptor

N[C@@H](Cc1cc(I)c(Oc2ccc(O)c(I)c2)c(I)c1)C(=O)O [T3, triiodothyronine]
competition with labeled T3, in words [1]: competed with labeled T3 for binding to the thyroid hormone receptors
binding to cellular fractions, in words [4]: high-affinity, low capacity binding sites

CCCCc1oc2ccccc2c1C(O)c1cc(I)c(OCCN(CC)CC)c(I)c1 (stereo not drawn)
binding to T3 (thyroid hormone) receptor, in words [3]: binds weakly to the T3 receptor

CCN(CC)CCOc1c(I)cc(C(C)=O)cc1I
binding to T3 (thyroid hormone) receptor, in words [3]: zero binding

N[C@@H](Cc1cc(I)c(Oc2ccc(O)c(I)c2)c(I)c1)C(=O)O [^125 I-T3]
maximum binding capacity ([1]; intact GC cells, normalized to DNA content): about 85 fmol/100 ug DNA
